Converted amounts (≈) assume the structure as drawn. Non-standard residues stand in square brackets, D forms with d. Residues, ends and D or L forms follow the SMILES beside them.
Assays:
MRSA biofilm [1] = assay: Antibiofilm activity, conventional crystal violet (CV) method; type: cell-based, Methicillin-resistant S. aureus; conditions: for Peptide concentration inhibiting the biofilm at 100%, Crystal Violet: peptides added at the very beginning of culture; for concentration that could be enough to inhibit the biofilms completely: allowing for deviation of about 16.7 in non-specific CV binding
Procedure: There was 90 µL of 10^6 CFU/mL MRSA in MHB media with fructose transferred into wells. Then, 10 µL of 1:2 serial dilutions of the antimicrobial peptides (1280–0 µg/mL) was added in wells. So that, final concentrations of peptides were 128–0 µg/mL. Plates were incubated at 37°C overnight. After overnight incubation, they were analyzed with conventional CV method. For this purpose, the bacterial cultures were removed, and wells were washed with distilled water. 200 µl of 1% CV dye was added to each well and incubated at room temperature for 15 min in the dark. Then, CV dye was removed, and wells were washed with water. After dried the plate in an oven at 45–50°C, 33% acetic acid was added into wells to dissolve the dye and wells were spectrophotometrically read by Varioscan (Thermo, USA) at 590 nm (Stepanović et al. [2000]). Biofilm inhibiton rates (%) were calculated by the following formula (Liu et al. [2021]): (1-A590ofwellstreatedwithpeptides/[…])×100
Before this calculation, the values obtained from all wells were subtracted from the value from the empty wells (Blank).

Proteinase K = Proteinase K (Parengyodontium album, UniProt P06873); assay: Protease resistance, Proteinase K treatment with HPLC analysis; type: in vitro ADME; conditions: analytical HPLC
Chain of Proteinase K (P06873 106-384): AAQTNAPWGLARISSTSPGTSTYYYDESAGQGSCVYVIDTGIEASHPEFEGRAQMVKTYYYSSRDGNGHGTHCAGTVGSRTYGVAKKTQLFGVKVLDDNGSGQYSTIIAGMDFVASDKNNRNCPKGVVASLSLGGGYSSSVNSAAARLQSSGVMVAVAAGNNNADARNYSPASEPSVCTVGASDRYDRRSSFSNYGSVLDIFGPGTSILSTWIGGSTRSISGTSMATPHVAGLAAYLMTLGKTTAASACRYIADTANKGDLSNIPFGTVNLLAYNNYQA
Procedure: Proteinase K was used for testing the resistance of the designed peptides to proteases, since Proteinase K, a serine protease with broad-spectrum cleavage activity that preferentially cleaves aliphatic and aromatic amino acid residues, is widely used in the literature to determine the protease resistance of antimicrobial peptides (Lucio et al. [2017], Wang et al. [2019]). Afterwards, HPLC characterization was performed to understand the effect of Proteinase K on peptides.

E. coli ER2566 = type: cell-based
Description: (§1) NET1, NET2, NET3, and NET4 peptide antibiotics were used in the experiments. For the purpose of the study, both clinical isolates Methicillin-Resistant S. aureus (MRSA), Vancomycin-resistant Enterococcus (VRE), E. coli ER2566, E. coli 13846 bacteria and ATCC strains S. aureus and E. coli bacteria were used in the MIC study. All strains used in this study have been deposited in a strain collection of the Research Laboratory of Acibadem Mehmet Ali Aydinlar University. For experiment 0.5 McFarland bacterial suspension was prepared in Müeller Hinton Broth (MHB) media. In the 96-well plate, serial dilutions of peptide antibiotics starting from 512 to 0 μg/mL were made in MHB media and added 5 µl of bacterial suspensions. After incubated overnight at 37°C, results were evaluated according to turbidity (Teh et al. [2017]). Ampicillin was used as positive controls.

E. coli ATCC25922 = type: cell-based
Description: as §1

E. coli NTCC13846 = type: cell-based
Description: as §1

S. aureus ATCC25923 = type: cell-based
Description: as §1

S. aureus ATCC29213 = type: cell-based
Description: as §1

VRE = type: cell-based, Vancomycin-resistant Enterococcus
Description: as §1

MRSA = type: cell-based, Methicillin-Resistant S. aureus
Description: as §1

MRSA biofilm [2] = assay: Antibiofilm activity, CoMIC method; type: cell-based, Methicillin-resistant S. aureus; conditions: peptides added just before the start of biofilm formation
Procedure: Ninety microliters of 0.5 McF Methicillin-resistant S. aureus (MRSA) (1.5×10^8 CFU/mL) in Congo Red Broth media with fructose was transferred into wells. Plates were incubated at 37°C. At the time just before the start of biofilm formation as optimized in Fig. 4, 10 µL of 1:2 serial dilutions of the antimicrobial peptides (2560–0 µg/mL) was added in wells. So that, final concentrations of peptides were 256–0 µg/mL. Incubation of media continued overnight. Then, wells were evaluated according to their black color formation.

erythrocytes = type: cell-based
Procedure: Hemolytic activity assays were carried out using erythrocytes, using triton X-100 as lysis control agent. Hemolytic activities were analyzed by reading each well with a plate reader spectrophotometer device at 414 nm and the % lysis rate was calculated in Microsoft Excel according to the following formula (Eren et al. [2008]). Lysis%=[OD414-OD414blank]/[OD414totallysis-OD414blank]×100

3T3 cell line = assay: in vitro; type: cell-based
Description: (§2) MTT Cell Proliferation Kit (Sigma), a colorimetric method, was used for this test to evaluate the damage that peptides can cause in eukaryotic cells and all cell lines used in this study have been deposited in a collection of the Research Laboratory of Acibadem Mehmet Ali Aydinlar University. The cell lines of 3T3 (ATCC CRL-1658) and HaCaT (ATCC PCS-200-011) were revived under appropriate culture conditions and made ready for the experiment. The final concentration of peptides reached 64 to 0.5 μg/mL. Samples were worked in triplicates for each concentration. Cells incubated without peptide-treatment under the same conditions were used as a control. Magainin II, a known natural AMP that has no cytotoxic effects, was used as a positive control (Bacalum and Radu [2015]). The results were analyzed by reading them with a 96-well plate reader at 550 and 690 nm.

HaCaT cell line = assay: in vitro; type: cell-based
Description: as §2

in vitro = type: cell-based
Description: as §2

S. aureus 29213 biofilm [3] = assay: Real-time monitoring of antibiofilm activity, CoMIC method; type: cell-based
Procedure: (§3) 1:2 serial dilutions of ciprofloxacine (200–0 µg/mL) and sodium hypochlorite (5–0%) were prepared in Congo Red Broth media with sucrose. S. aureus 29213 were added into culture media with a final concentration of 1×10^6 Colony-forming unit/mL (CFU/mL). All cultures were performed as triplicate and incubated at 37°C overnight and fluorescence measurements were conducted by using Varioscan (Thermo, USA). The excitation/emission wavelengths were used as 525/625 nm. As a replica plate, bacteria in the same broth media, except Congo Red were cultured and analyzed with conventional Crystal Violet (CV) method. For this purpose, the bacterial cultures were removed, and wells were washed with distilled water. There was 200 µl of 1% CV dye added to each well and incubated at room temperature for 15 min in the dark. Then, CV dye was removed, and wells were washed with water. After the plate was dry, 33% acetic acid was added into wells to dissolve the dye and wells were spectrophotometrically read by Varioscan (Thermo, USA) at 590 nm (Stepanović et al. [2000]).

S. aureus 29213 biofilm [4] = assay: Antibiofilm activity, crystal violet (CV) replica plate; type: cell-based; conditions: CV method
Procedure: as §3

[5] = S. aureus 29213, added at the very beginning of the biofilm culture
[6] = S. aureus 29213, added just before the start of biofilm formation
[7] = S. aureus 29213, added in the very beginning
[8] = S. aureus 29213, added just before biofilm formation

MIC for biofilms (S. aureus 29213 biofilm [3]; [5])	MIC for biofilms (S. aureus 29213 biofilm [3]; [6])	Structure (SMILES)	Peptide concentration inhibiting the biofilm at 100%, Crystal Violet (MRSA biofilm [1]) [µg/mL]	resistance to proteases (HPLC after proteinase K treatment) (Proteinase K)	MIC (E. coli ER2566) [µg/mL]	MIC (E. coli ATCC25922) [µg/mL]	MIC (E. coli NTCC13846) [µg/mL]	MIC (S. aureus ATCC25923) [µg/mL]	MIC (S. aureus ATCC29213) [µg/mL]	MIC (VRE) [µg/mL]	MIC (MRSA) [µg/mL]	Peptide concentration inhibiting the biofilm at 100%, CoMIC (MRSA biofilm [2]) [µg/mL]	HC50 value as times the MIC value (erythrocytes)	therapeutic index for hemolytic activities (erythrocytes)	therapeutic index for cytotoxic activities (3T3 cell line)	IC50 value as times the MIC value (HaCaT cell line)	therapeutic index for cytotoxic activities (HaCaT cell line)	IC50 (in vitro; human) [µg/mL]	IC50 (in vitro; mouse) [µg/mL]	concentration that could be enough to inhibit the biofilms completely (MRSA biofilm [1]; CV method)	further results
		CC(C)C[C@H](NC(=O)[C@H](CC(C)C)NC(=O)[C@H](CC(C)C)NC(=O)[C@H](CCCNC(=N)N)NC(=O)[C@H](CC(C)C)NC(=O)[C@H](CC(C)C)NC(=O)[C@H](CCCNC(=N)N)NC(=O)[C@H](CCCNC(=N)N)NC(=O)[C@H](CC(C)C)NC(=O)[C@H](CC(C)C)NC(=O)[C@H](CCCNC(=N)N)NC(=O)[C@H](CC(C)C)NC(=O)[C@H](CC(C)C)NC(=O)[C@H](CC(C)C)NC(=O)[C@@H](N)CCCNC(=N)N)C(=O)N[C@@H](CCCNC(=N)N)C(N)=O [NET2, RLLLRLLRRLLRLLLR-NH2] (H-RLLLRLLRRLLRLLLR-NH2; N-terminus assumed)	128	completely degraded	4 (≈ 1.92 µM)	64 (≈ 30.7 µM)	64 (≈ 30.7 µM)	32 (≈ 15.3 µM)	64 (≈ 30.7 µM)	2 (≈ 0.959 µM)	64 (≈ 30.7 µM)	>256	2–8 times	1	2	2-4 times	2	> 128	> 128		concentration that provided over 50% biofilm inhibition (MRSA biofilm [1]; CV method): 64 µg/mL
		CC(C)C[C@H](NC(=O)[C@H](N)CCCNC(=N)N)C(=O)N[C@@H](CC(C)C)C(=O)N[C@@H](CC(C)C)C(=O)N[C@H](CCCNC(=N)N)C(=O)N[C@@H](CC(C)C)C(=O)N[C@@H](CC(C)C)C(=O)N[C@H](CCCNC(=N)N)C(=O)N[C@H](CCCNC(=N)N)C(=O)N[C@@H](CC(C)C)C(=O)N[C@@H](CC(C)C)C(=O)N[C@H](CCCNC(=N)N)C(=O)N[C@@H](CC(C)C)C(=O)N[C@@H](CC(C)C)C(=O)N[C@@H](CC(C)C)C(=O)N[C@H](CCCNC(=N)N)C(N)=O [NET3, RLLLRLLRRLLRLLLR-NH2] (H-[dR]LLL[dR]LL[dR][dR]LL[dR]LLL[dR]-NH2; N-terminus assumed)	4	not fractionated by proteases	0.5 (≈ 0.24 µM)	4 (≈ 1.92 µM)	2 (≈ 0.959 µM)	2 (≈ 0.959 µM)	2 (≈ 0.959 µM)	0.5 (≈ 0.24 µM)	2 (≈ 0.959 µM)	128	16–32 times	32	16	16-32 times	32	64 (≈ 30.7 µM)	32 (≈ 15.3 µM)	less than 1 µg/mL	
		CC(C)C[C@@H](NC(=O)[C@H](N)CCCNC(=N)N)C(=O)N[C@H](CC(C)C)C(=O)N[C@H](CC(C)C)C(=O)N[C@H](CCCNC(=N)N)C(=O)N[C@H](CC(C)C)C(=O)N[C@H](CC(C)C)C(=O)N[C@H](CCCNC(=N)N)C(=O)N[C@H](CCCNC(=N)N)C(=O)N[C@H](CC(C)C)C(=O)N[C@H](CC(C)C)C(=O)N[C@H](CCCNC(=N)N)C(=O)N[C@H](CC(C)C)C(=O)N[C@H](CC(C)C)C(=O)N[C@H](CC(C)C)C(=O)N[C@H](CCCNC(=N)N)C(N)=O [NET4, RLLLRLLRRLLRLLLR-NH2] (H-[dR][dL][dL][dL][dR][dL][dL][dR][dR][dL][dL][dR][dL][dL][dL][dR]-NH2; N-terminus assumed)	128	not fractionated by proteases	1 (≈ 0.479 µM)	8 (≈ 3.84 µM)	32 (≈ 15.3 µM)	16 (≈ 7.67 µM)	16 (≈ 7.67 µM)	2 (≈ 0.959 µM)	16 (≈ 7.67 µM)	>256		4	8	4-16 times	8	> 128	> 128	64 µg/mL	cytotoxicity at 64 µg/ml (in vitro; human): > 50%
50 µg/mL	> 200 µg/mL	O=C(O)c1cn(C2CC2)c2cc(N3CCNCC3)c(F)cc2c1=O [ciprofloxacin]																			MIC for biofilms (S. aureus 29213 biofilm [4]; [7]): 12.5 µg/mL; MIC for biofilms (S. aureus 29213 biofilm [4]; [8]): > 200 µg/mL
1.25%	1.25%	[Na+].[O-]Cl [sodium hypochlorite]																			MIC for biofilms (S. aureus 29213 biofilm [4]; [7]): 1.25%; MIC for biofilms (S. aureus 29213 biofilm [4]; [8]): 5%
